# Key:
# BRD4-2 = biological target: T1, BRD4-2 (Homo sapiens, UniProt O60885); experiment: BRD4-2 in vitro inhibition; assay type: binding
# T1 construct: BRD4-2
# Protocol: (§1) The kinase or bromodomain inhibitory activity of a compound of the invention can be determined by routine methods known to the skilled artisan without undue experimentation, or by procuring relevant analysis by a commercial vendor offering such services. […] In vivo, PI3K inhibition can be determined from target tissue biopsies by standard tissue processing in which cells are disrupted and Western Blot analysis is performed to determine the presence or absence of pAKT (substrate of PI3K) relative to a control sample. PI3K inhibition assays and BTK inhibition assays are known in the art and can be procured commercially through vendors such as Reaction Biology (Malvern, PA). The activity of a compound of the invention as an inhibitor of a bromodomain-containing protein, such as a BET protein, including BRD2, BRD3, BRD4, and/or BRDT, or an isoform or mutant thereof, may be determined in vitro, in vivo, or in a cell line. In vitro assays include assays that determine inhibition of bromodomain-containing proteins. Alternatively, inhibitor binding may be determined by running a competition experiment where a provided compound is incubated with a bromodomain-containing protein, such as a BET protein bound to known ligands, labeled or unlabeled. In vitro bromodomain inhibition assays can be performed using Alpha Screen Technology (Perkin Elmer Life and Analytical Sciences, Shelton, CT). In vivo bromodomain inhibition can be determined indirectly by evaluating the amount of a protein whose gene transcription is influenced or controlled by the bromodomain protein, for example, MYCN protein transcription is controlled by BRD4 (J.E. Delmore et al., Cell 2011, 146, 904-917; A. Puissant, Cancer Discov. 2013, 3, 308-323).
# BRD4-1 = biological target: T2, BRD4-1 (Homo sapiens, UniProt O60885); experiment: BRD4-1 in vitro inhibition; assay type: binding
# T2 construct: BRD4-1
# Protocol: as §1
# PI3K alpha = PI3K alpha (Homo sapiens, UniProt P42336); experiment: PI3K alpha in vitro inhibition; assay type: biochemical
# Protocol: as §1
# PI3K gamma = PI3K gamma (Homo sapiens, UniProt P48736); experiment: PI3K gamma in vitro inhibition; assay type: biochemical; conditions: read-out: IC50 inhibition PI3K gamma
# Protocol: as §1
# (§2) IC50 inhibition data against the indicated targets were determined for compounds of the invention using standard in vitro assays (Tables 8 and 9).
# PI3K beta = PI3K beta (Homo sapiens, UniProt P42338); experiment: PI3K beta in vitro inhibition; assay type: biochemical
# Protocol: as §1
# CDK6 cyclinD1 = CDK6 cyclinD1 (Homo sapiens, UniProt Q00534); experiment: CDK6 cyclinD1 in vitro inhibition; assay type: biochemical
# Protocol: as §1, §2
# CDK4 cyclinD1 = CDK4 cyclinD1 (Homo sapiens, UniProt P11802); experiment: CDK4 cyclinD1 in vitro inhibition; assay type: biochemical
# Protocol: as §1, §2
# BTK C481S = BTK C481S (Homo sapiens, UniProt Q06187, C481S); experiment: BTK C481S in vitro inhibition; assay type: biochemical
# Protocol: as §1, §2
# BTK = BTK (Homo sapiens, UniProt Q06187); experiment: BTK in vitro inhibition; assay type: biochemical
# Protocol: as §1, §2
# PI3K alpha, sequence (P42336 whole entry): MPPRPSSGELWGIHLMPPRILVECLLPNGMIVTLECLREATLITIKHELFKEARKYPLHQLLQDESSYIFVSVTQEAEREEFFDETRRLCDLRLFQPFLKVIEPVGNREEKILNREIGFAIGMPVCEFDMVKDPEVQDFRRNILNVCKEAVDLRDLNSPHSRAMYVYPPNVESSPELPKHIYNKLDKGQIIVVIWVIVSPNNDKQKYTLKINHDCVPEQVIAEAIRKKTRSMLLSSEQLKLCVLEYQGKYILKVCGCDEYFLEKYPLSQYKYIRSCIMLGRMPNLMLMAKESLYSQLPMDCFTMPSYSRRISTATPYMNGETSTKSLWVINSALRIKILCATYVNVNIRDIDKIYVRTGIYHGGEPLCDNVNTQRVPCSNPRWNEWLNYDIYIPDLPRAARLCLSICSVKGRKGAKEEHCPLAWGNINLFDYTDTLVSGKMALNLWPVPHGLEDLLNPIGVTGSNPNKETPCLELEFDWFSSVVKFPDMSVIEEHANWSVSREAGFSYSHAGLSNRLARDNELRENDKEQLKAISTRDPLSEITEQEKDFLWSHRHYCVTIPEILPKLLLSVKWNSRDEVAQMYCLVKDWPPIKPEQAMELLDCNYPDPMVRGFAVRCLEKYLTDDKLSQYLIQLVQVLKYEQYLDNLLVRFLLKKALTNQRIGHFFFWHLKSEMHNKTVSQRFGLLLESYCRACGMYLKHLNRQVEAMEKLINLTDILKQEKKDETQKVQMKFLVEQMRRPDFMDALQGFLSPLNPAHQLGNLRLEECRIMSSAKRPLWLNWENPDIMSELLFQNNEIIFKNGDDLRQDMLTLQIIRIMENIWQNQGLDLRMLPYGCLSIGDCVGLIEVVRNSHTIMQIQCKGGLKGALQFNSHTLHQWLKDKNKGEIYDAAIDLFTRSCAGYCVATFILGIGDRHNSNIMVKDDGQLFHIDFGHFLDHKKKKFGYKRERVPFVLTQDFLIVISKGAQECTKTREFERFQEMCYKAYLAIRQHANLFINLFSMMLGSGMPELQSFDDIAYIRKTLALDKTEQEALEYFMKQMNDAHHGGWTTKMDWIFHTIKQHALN
# PI3K alpha, sequence (P27986 whole entry partner): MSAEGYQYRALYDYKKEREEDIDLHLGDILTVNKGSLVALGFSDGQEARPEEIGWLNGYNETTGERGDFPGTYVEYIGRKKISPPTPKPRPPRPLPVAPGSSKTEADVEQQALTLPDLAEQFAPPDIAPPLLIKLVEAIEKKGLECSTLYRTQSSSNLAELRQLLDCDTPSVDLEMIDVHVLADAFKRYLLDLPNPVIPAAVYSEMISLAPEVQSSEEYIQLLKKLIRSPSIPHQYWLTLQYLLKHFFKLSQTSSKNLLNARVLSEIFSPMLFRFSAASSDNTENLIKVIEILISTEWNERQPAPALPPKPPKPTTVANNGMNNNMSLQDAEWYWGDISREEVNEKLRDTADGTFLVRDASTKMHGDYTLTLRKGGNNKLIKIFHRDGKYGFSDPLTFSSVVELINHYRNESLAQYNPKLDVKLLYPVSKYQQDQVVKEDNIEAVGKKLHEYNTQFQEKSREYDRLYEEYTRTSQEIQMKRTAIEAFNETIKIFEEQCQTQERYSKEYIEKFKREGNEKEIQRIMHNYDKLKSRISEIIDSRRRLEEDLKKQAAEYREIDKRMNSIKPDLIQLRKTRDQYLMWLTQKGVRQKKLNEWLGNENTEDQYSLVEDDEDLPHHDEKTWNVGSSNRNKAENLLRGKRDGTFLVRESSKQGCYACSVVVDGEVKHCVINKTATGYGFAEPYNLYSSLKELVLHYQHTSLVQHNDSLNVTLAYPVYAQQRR
# BTK C481S, sequence (Q06187 whole entry C481S): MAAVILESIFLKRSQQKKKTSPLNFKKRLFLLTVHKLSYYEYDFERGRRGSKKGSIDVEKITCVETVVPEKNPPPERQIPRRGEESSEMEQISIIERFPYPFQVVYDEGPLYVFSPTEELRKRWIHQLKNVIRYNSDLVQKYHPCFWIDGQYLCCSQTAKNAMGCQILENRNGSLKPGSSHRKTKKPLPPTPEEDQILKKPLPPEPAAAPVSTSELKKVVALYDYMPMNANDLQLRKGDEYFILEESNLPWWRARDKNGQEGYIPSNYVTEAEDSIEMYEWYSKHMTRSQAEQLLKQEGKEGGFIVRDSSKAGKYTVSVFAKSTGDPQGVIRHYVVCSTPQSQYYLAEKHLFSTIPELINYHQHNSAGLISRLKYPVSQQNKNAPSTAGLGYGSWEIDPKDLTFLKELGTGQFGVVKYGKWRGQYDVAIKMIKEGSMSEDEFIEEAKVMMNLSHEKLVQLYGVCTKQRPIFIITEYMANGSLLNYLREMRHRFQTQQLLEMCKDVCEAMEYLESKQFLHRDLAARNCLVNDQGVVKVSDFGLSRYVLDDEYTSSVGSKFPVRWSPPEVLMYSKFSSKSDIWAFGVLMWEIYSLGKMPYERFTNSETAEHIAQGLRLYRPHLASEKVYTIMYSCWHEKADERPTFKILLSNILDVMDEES
# BTK, sequence (Q06187 whole entry): as the sequence (Q06187 whole entry C481S) above, with S481C counted along it
# CDK6 cyclinD1, sequence (Q00534 whole entry): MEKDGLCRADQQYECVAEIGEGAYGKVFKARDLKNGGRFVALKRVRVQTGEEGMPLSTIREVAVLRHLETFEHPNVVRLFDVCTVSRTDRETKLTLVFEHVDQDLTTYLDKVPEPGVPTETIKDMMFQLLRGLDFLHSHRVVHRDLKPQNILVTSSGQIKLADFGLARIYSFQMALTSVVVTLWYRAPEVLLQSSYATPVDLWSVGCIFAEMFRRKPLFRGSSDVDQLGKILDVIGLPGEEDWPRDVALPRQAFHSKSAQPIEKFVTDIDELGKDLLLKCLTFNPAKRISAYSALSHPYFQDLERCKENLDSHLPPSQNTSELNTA
# CDK6 cyclinD1, sequence (P24385 whole entry partner): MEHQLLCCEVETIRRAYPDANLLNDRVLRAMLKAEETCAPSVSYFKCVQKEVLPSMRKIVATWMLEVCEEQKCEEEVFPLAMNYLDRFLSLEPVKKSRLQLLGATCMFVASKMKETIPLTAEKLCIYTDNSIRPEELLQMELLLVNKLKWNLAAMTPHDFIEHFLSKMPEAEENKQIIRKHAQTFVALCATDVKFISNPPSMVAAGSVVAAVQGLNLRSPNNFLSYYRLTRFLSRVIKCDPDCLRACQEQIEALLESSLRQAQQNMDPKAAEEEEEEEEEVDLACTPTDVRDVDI
# PI3K gamma, sequence (P48736 whole entry): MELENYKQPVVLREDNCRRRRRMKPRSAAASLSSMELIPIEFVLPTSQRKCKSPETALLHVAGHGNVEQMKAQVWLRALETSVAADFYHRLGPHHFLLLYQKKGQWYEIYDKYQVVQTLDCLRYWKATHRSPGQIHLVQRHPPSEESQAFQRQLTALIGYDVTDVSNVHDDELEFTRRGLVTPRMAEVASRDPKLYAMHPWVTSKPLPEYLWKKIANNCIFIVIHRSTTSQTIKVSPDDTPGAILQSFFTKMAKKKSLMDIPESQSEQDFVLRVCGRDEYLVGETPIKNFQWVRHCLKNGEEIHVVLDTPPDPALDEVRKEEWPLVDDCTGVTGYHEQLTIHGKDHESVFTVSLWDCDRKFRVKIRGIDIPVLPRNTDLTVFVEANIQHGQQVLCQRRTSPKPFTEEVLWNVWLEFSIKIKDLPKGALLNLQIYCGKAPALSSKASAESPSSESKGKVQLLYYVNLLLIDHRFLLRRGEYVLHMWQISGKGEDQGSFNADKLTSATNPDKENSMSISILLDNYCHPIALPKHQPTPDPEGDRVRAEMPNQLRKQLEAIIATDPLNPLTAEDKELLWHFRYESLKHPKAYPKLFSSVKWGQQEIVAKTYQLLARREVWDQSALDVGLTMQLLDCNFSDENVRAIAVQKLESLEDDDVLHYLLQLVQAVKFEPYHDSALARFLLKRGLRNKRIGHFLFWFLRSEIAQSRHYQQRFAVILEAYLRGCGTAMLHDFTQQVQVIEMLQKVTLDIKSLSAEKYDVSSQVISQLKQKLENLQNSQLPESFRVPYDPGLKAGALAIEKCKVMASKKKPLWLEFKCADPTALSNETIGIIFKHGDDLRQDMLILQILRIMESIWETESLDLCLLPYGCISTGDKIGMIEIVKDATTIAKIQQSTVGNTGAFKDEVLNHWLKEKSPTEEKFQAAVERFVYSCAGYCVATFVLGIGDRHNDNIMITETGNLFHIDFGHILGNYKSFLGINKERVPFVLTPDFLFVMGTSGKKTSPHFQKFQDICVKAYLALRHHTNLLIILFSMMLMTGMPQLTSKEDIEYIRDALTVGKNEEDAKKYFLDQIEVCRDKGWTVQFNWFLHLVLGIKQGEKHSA
# CDK4 cyclinD1, sequence (P11802 whole entry): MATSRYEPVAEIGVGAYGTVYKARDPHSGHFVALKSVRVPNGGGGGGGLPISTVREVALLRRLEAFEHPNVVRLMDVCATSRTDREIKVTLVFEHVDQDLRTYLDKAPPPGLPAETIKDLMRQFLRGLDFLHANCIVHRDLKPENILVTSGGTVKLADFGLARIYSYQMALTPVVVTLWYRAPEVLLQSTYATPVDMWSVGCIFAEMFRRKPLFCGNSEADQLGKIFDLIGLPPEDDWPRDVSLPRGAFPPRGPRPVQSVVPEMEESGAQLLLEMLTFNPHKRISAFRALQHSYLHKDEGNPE
# CDK4 cyclinD1, sequence (P24385 whole entry partner): as the sequence (P24385 whole entry partner) above
Compound,IC50 (BRD4-2),IC50 (BRD4-1),IC50 (PI3K alpha),IC50 (PI3K gamma),IC50 (PI3K beta),IC50 (CDK6 cyclinD1),IC50 (CDK4 cyclinD1),IC50 (BTK C481S),IC50 (BTK)
O=c1cc(N2CCNCC2)oc2c(-c3ccc4c(c3)OCCO4)csc12 [Compound 1],10 to 45 µM,< 0.5 µM,> 45 µM,> 45 µM,10 to 45 µM,–,–,–,–
O=C(NCc1cccnc1)c1cc(-c2csc3c(=O)cc(N4CCOCC4)oc23)cc2c1OCCO2 [Compound 2],< 0.5 µM,< 0.5 µM,< 0.5 µM,< 0.5 µM,< 0.5 µM,–,–,–,–
O=C(NCc1cccnc1)c1cc(-c2csc3c(=O)cc(N4CCNCC4)oc23)cc2c1OCCO2 [Compound 3],1 to 10 µM,< 0.5 µM,1 to 10 µM,10 to 45 µM,1 to 10 µM,–,–,–,–
CN1CCN(c2cc(=O)c3scc(-c4cc5c(c(C(=O)NCc6cccnc6)c4)OCCO5)c3o2)CC1 [Compound 4],1 to 10 µM,< 0.5 µM,10 to 45 µM,10 to 45 µM,1 to 10 µM,–,–,–,–
COC(=O)c1cc(-c2csc3c(=O)cc(N4CCN(C(=O)OC(C)(C)C)CC4)oc23)cc2c1OCCO2 [Compound 5],> 45 µM,< 0.5 µM,< 0.5 µM,< 0.5 µM,1 to 10 µM,–,–,–,–
CN(C)C(=O)c1cc2cnc(Nc3ccc(-c4csc5c(=O)cc(N6CCOCC6)oc45)cn3)nc2n1C1CCCC1 [Compound 8],< 0.5 µM,< 0.5 µM,< 0.5 µM,0.5 to 1 µM,< 0.5 µM,< 0.5 µM,< 0.5 µM,–,–
CN(C)C(=O)c1cc2cnc(Nc3ccc(-c4csc5c(=O)cc(N6CCNCC6)oc45)cc3)nc2n1C1CCCC1 [Compound 9],0.5 to 1 µM,< 0.5 µM,10 to 45 µM,10 to 45 µM,10 to 45 µM,< 0.5 µM,< 0.5 µM,–,–
CN(C)C(=O)c1cc2cnc(Nc3ccc(-c4csc5c(=O)cc(N6CCN(C(=O)OC(C)(C)C)CC6)oc45)cc3)nc2n1C1CCCC1 [Compound 10],1 to 10 µM,0.5 to 1 µM,1 to 10 µM,1 to 10 µM,0.5 to 1 µM,< 0.5 µM,< 0.5 µM,–,–
COC(=O)c1cc(-c2csc3c(=O)cc(N4CCOCC4)oc23)ccc1Nc1ncc2cc(C(=O)N(C)C)n(C3CCCC3)c2n1 [Compound 11],1 to 10 µM,< 0.5 µM,< 0.5 µM,1 to 10 µM,< 0.5 µM,> 45 µM,> 45 µM,–,–
CN(C)C(=O)c1cc2cnc(Nc3csc4c(=O)cc(N5CCOCC5)oc34)nc2n1C1CCCC1 [Compound 12],10 to 45 µM,10 to 45 µM,1 to 10 µM,> 45 µM,< 0.5 µM,> 45 µM,1 to 10 µM,–,–
CN(C)C(=O)c1cc2cnc(Nc3ccc(-c4csc5c(=O)cc(N6CCOCC6)oc45)cc3C(=O)O)nc2n1C1CCCC1 [Compound 13],0.5 to 1 µM,0.5 to 1 µM,< 0.5 µM,0.5 to 1 µM,< 0.5 µM,> 45 µM,> 45 µM,–,–
CN(C)C(=O)c1cc2cnc(Nc3ccc(-c4csc5c(=O)cc(N6CCOCC6)oc45)c(C(=O)O)c3)nc2n1C1CCCC1 [Compound 14],10 to 45 µM,> 45 µM,< 0.5 µM,< 0.5 µM,< 0.5 µM,10 to 45 µM,10 to 45 µM,–,–
CN(C)C(=O)c1cc2cnc(Nc3ccc(-c4csc5c(=O)cc(N6CCOCC6)oc45)c(C(=O)O)c3)nc2n1C1CCCC1 [Compound 15],10 to 45 µM,10 to 45 µM,< 0.5 µM,1 to 10 µM,< 0.5 µM,0.5 to 1 µM,1 to 10 µM,–,–
CNC(=O)c1cc2cnc(Nc3ccc(-c4csc5c(=O)cc(N6CCOCC6)oc45)cc3)nc2n1C1CCCC1 [Compound 16],< 0.5 µM,< 0.5 µM,< 0.5 µM,1 to 10 µM,< 0.5 µM,< 0.5 µM,< 0.5 µM,–,–
CNC(=O)c1cc2cnc(Nc3ccc(C#Cc4csc5c(=O)cc(N6CCOCC6)oc45)cc3)nc2n1C1CCCC1 [Compound 17],10 to 45 µM,1 to 10 µM,< 0.5 µM,0.5 to 1 µM,< 0.5 µM,< 0.5 µM,< 0.5 µM,–,–
CN(C)C(=O)c1cc2cnc(Nc3cccc(-c4csc5c(=O)cc(N6CCOCC6)oc45)c3)nc2n1C1CCCC1 [Compound 18],0.5 to 1 µM,1 to 10 µM,0.5 to 1 µM,1 to 10 µM,< 0.5 µM,< 0.5 µM,< 0.5 µM,–,–
CN(C)C(=O)c1cc2cnc(Nc3cncc(-c4csc5c(=O)cc(N6CCOCC6)oc45)c3)nc2n1C1CCCC1 [Compound 19],1 to 10 µM,1 to 10 µM,0.5 to 1 µM,1 to 10 µM,< 0.5 µM,< 0.5 µM,< 0.5 µM,–,–
CN(C)C(=O)c1cc2cnc(Nc3cc(C(=O)O)cc(-c4csc5c(=O)cc(N6CCOCC6)oc45)c3)nc2n1C1CCCC1 [Compound 20],> 45 µM,10 to 45 µM,1 to 10 µM,> 45 µM,1 to 10 µM,> 45 µM,10 to 45 µM,–,–
CN(C)C(=O)c1cc2cnc(N(c3cncc(-c4csc5c(=O)cc(N6CCOCC6)oc45)c3)c3ncc4cc(C(=O)N(C)C)n(C5CCCC5)c4n3)nc2n1C1CCCC1 [Compound 21],1 to 10 µM,1 to 10 µM,1 to 10 µM,10 to 45 µM,1 to 10 µM,0.5 to 1 µM,< 0.5 µM,–,–
CN(C)C(=O)c1cc2cnc(Nc3ccc(-c4csc5c(=O)cc(N6CCOCC6)oc45)c(C(=O)NCCN)c3)nc2n1C1CCCC1 [Compound 22],1 to 10 µM,> 45 µM,0.5 to 1 µM,10 to 45 µM,< 0.5 µM,< 0.5 µM,< 0.5 µM,–,–
O=C(O)c1cc2cnc(Nc3ccc(-c4csc5c(=O)cc(N6CCOCC6)oc45)cc3)nc2n1C1CCCC1 [Compound 23],1 to 10 µM,0.5 to 1 µM,< 0.5 µM,< 0.5 µM,< 0.5 µM,< 0.5 µM,< 0.5 µM,–,–
CN(C)C(=O)c1cc2cnc(N3CCOc4cc(-c5csc6c(=O)cc(N7CCOCC7)oc56)ccc43)nc2n1C1CCCC1 [Compound 24],–,–,< 0.5 µM,1 to 10 µM,< 0.5 µM,–,> 45 µM,–,–
CC(C)n1c(C(=O)N(C)C)cc2cnc(Nc3ccc(-c4csc5c(=O)cc(N6CCOCC6)oc45)cc3)nc21 [Compound 25],< 0.5 µM,< 0.5 µM,< 0.5 µM,1 to 10 µM,< 0.5 µM,< 0.5 µM,< 0.5 µM,–,–
C=CC(=O)N1CCOc2ccc(-c3csc4c(=O)cc(N5CCNCC5)oc34)cc21 [Compound 26],–,< 0.5 µM,10 to 45 µM,> 45 µM,1 to 10 µM,–,–,10 to 45 µM,< 0.5 µM
C=CC(=O)Nc1cccc(-c2csc3c(=O)cc(N4CCNCC4)oc23)c1 [Compound 27],–,0.5 to 1 µM,> 45 µM,> 45 µM,> 45 µM,–,–,10 to 45 µM,–
C=CC(=O)N1CCOc2ccc(-c3csc4c(=O)cc(N5CCN(C)CC5)oc34)cc21 [Compound 28],10 to 45 µM,–,10 to 45 µM,> 45 µM,1 to 10 µM,–,–,–,< 0.5 µM
C=CC(=O)N1CCOc2ccc(-c3csc4c(=O)cc(N5CCN(C(=O)OC(C)(C)C)CC5)oc34)cc21 [Compound 29],–,0.5 to 1 µM,10 to 45 µM,10 to 45 µM,1 to 10 µM,–,–,10 to 45 µM,< 0.5 µM
CCCCC/C=C/C(=O)Nc1cccc(-c2csc3c(=O)cc(N4CCOCC4)oc23)c1 [Compound 34],10 to 45 µM,–,–,10 to 45 µM,1 to 10 µM,–,–,> 45 µM,> 45 µM
N#C/C(=C\C1CC1)C(=O)Nc1cccc(-c2csc3c(=O)cc(N4CCOCC4)oc23)c1 [Compound 35],0.5 to 1 µM,–,< 0.5 µM,–,< 0.5 µM,–,–,10 to 45 µM,10 to 45 µM
O=C(C1=CCCC1)N1CCOc2ccc(-c3csc4c(=O)cc(N5CCOCC5)oc34)cc21 [Compound 41],–,–,–,–,–,–,–,–,1 to 10 µM
